Calls of active or inactive are those of the source. No cut-off for these calls is given here.

One assay deals with Transthyretin (Homo sapiens, UniProt P02766, V50M). Nature of the assay: Binding affinity to human recombinant TTR V30M mutant denominated hormone binding site expressed in Escherichia coli by FRET analysis.
Assay [1] can be described thus: Binding affinity to human recombinant TTR T119M mutant denominated hormone binding site expressed in Escherichia coli by FRET analysis.
The target of assay [2] is Transthyretin (Homo sapiens) (UniProt P02766). As to the kind of experiment: Binding affinity to wild type human TTR denominated hormone binding site expressed in Escherichia coli at 100 nM by fluorescence anisotropy. In general terms: Polarisation of emitted light reports the rotation of a fluorescent probe.
Assay [3] deals with Transthyretin (Homo sapiens), P02766 [V50M]. Nature of the assay: Binding affinity to human recombinant TTR V30M mutant denominated hormone binding site expressed in Escherichia coli at 100 nM by fluorescence anisotropy.
The species entered for assay [4] is Homo sapiens. Nature of the assay: Binding affinity to human recombinant TTR T119M mutant denominated hormone binding site expressed in Escherichia coli at 100 nM by fluorescence anisotropy.
In assay [5] the target is Transthyretin (Homo sapiens) (UniProt P02766). Nature of the assay: Inhibition of wild type human TTR aggregation expressed in Escherichia coli assessed as fibril formation at 20 uM after 72 hrs relative by spectrofluorimetry. Further details: scale not given: the % may be the effect or the level left.
Assay [6] in a line: Binding affinity to human recombinant TTR T119M mutant denominated hormone binding site expressed in Escherichia coli assessed as dissociation constant for first ligand binding event by isothermal direct titrimetric assay.
Assay [7] can be described thus: Binding affinity to human recombinant TTR T119M mutant denominated hormone binding site expressed in Escherichia coli assessed as dissociation constant for second ligand binding event by isothermal direct titrimetric assay.
A short description of assay [8]: Binding affinity to human recombinant TTR T119M mutant denominated hormone binding site expressed in Escherichia coli by isothermal direct titrimetric assay.
Assay [9] has as its target Transthyretin (Homo sapiens) (UniProt P02766). As to the kind of experiment: Binding affinity to wild type human TTR denominated hormone binding site expressed in Escherichia coli at 10 uM by fluorescence anisotropy.
Assay [10] deals with Transthyretin (Homo sapiens), P02766 [V50M]. As to the kind of experiment: Binding affinity to human recombinant TTR V30M mutant denominated hormone binding site expressed in Escherichia coli at 10 uM by fluorescence anisotropy.
Assay [11] is filed under the species Homo sapiens. As to the kind of experiment: Binding affinity to human recombinant TTR T119M mutant denominated hormone binding site expressed in Escherichia coli at 10 uM by fluorescence anisotropy.

A word on the Kd: it is the equilibrium constant for the complex coming apart. In the case of `Nc1cccc2c(S(=O)(=O)O)cccc12`, the Kd at Transthyretin worked out at 86 µM; in assay [1] it was 93 µM. Further, the outcome (in assay [2]; in [3]; in the assay listed under Homo sapiens [4]) was Active. The Activity in assay [5] is 100%.
As for `O=S(=O)(O)c1cccc2cccc(Nc3ccccc3)c12`, the values for the Kd in assay [6], in [7] and in assay [8] were 3.2 µM, 6.7 µM and 4.5 µM, respectively. Besides, the outcome (in assay [9]; in [10]; in the assay filed under Homo sapiens [11]) was Active. Further, in assay [5], the Activity was 44%.
As to `O=C(O)Cc1ccccc1Nc1c(Cl)cccc1Cl`, the Activity in assay [5] was found to be 33%.
